According to ChEMBL document CHEMBL1201862, “PubChem BioAssay data set” (2004):
pIC50: −log10 of the molar value. Activity calls are given as the source filed them.

How the values were obtained:
[1] = biological target: T1, Sentrin-specific protease 8 (Homo sapiens, UniProt Q96LD8); type: functional
T1 sequence (Q96LD8 whole entry): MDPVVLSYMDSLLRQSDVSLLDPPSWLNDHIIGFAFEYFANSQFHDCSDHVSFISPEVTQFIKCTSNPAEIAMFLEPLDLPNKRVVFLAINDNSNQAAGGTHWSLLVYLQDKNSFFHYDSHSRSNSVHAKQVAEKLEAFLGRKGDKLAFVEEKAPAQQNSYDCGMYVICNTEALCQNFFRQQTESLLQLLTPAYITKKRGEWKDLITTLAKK

[2] = biological target: T1, Sentrin-specific protease 8; type: functional; remark: listed apart in the source
Kallikrein-7 = Kallikrein-7 (Homo sapiens, UniProt P49862); test: Fluorescence Intensity-based biochemical primary high throughput dose response assay to identify activators of kallikrein-7 (K7) zymogen.
[3] = biological target: T2, Oxysterols receptor LXR-beta (Homo sapiens, UniProt P55055); type: functional, cell-based;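 further: Cell-based luminescence dose-response assay of agonist activity at LXR, run as a confirmatory counterscreen to a daf-12 agonist screen; HEK293 cells with Gal4-LXR fusion and GAL4-driven luciferase reporter; agonist potency from rising luciferase signal of a Gal4-LXR reporter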
T2 sequence (P55055 whole entry): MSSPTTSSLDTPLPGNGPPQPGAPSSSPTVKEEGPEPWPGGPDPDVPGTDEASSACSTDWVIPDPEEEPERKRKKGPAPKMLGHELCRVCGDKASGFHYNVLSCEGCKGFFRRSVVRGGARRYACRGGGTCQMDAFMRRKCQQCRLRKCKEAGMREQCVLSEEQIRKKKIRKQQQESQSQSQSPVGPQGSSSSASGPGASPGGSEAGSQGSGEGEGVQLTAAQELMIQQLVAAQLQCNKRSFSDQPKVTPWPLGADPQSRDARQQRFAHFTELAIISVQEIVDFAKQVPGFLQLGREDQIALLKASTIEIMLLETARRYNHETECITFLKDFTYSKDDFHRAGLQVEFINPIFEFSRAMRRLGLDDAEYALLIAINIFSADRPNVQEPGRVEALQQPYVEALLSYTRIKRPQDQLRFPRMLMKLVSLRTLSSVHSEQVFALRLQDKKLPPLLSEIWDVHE

[4] = biological target: 72 kDa type IV collagenase (Homo sapiens, UniProt P08253); test: Dose Response validation of uHTS RPN11 inhibitor hits using a MMP-2 Fluorescence assay.; type: functional
Prothrombin = Prothrombin (Bos taurus, UniProt P00735); test: thrombin inhibition, dose response, biochemical, fluorescence polarization, uHTS hits (AID 602369); type: functional
[5] = biological target: Tyrosine-protein phosphatase non-receptor type 5 (Homo sapiens, UniProt P54829); test: STEP phosphatase inhibitors, confirmation, biochemical, fluorescence intensity, uHTS hits (AID 602372); type: functional; conditions: read-out: IC50_Mean
[6] = biological target: T3, Tyrosine-protein phosphatase non-receptor type 22 (Homo sapiens, UniProt Q9Y2R2); test: PTPN22 phosphatase inhibition, dose response, selectivity assay for STEP inhibitor project, biochemical (AID 624241); type: functional
T3 sequence (Q9Y2R2 whole entry): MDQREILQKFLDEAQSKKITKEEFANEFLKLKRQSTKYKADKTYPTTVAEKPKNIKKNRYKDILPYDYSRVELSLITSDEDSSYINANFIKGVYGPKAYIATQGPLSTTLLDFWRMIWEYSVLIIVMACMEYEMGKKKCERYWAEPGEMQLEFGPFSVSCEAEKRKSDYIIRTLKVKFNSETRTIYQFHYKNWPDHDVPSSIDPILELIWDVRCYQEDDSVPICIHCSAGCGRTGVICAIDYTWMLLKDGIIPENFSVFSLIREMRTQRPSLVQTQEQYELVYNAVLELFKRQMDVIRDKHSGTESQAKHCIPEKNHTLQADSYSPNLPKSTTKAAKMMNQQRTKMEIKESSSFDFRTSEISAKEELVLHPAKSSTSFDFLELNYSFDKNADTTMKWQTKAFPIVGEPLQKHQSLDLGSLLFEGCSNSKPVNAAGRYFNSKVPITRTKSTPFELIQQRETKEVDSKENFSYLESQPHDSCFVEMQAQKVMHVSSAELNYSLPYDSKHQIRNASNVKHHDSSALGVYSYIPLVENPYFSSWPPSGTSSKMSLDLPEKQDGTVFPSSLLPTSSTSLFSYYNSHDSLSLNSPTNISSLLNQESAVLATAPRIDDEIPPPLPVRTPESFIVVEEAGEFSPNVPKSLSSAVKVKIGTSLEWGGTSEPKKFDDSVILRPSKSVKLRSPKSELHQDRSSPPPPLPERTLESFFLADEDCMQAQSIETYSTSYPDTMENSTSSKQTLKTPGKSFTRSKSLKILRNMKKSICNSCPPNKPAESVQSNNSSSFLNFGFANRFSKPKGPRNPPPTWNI

[7] = biological target: Tyrosine-protein phosphatase non-receptor type 11 (Homo sapiens, UniProt Q06124); test: SHP2 phosphatase inhibition, dose response, selectivity assay for STEP inhibitor project, biochemical (AID 602367); type: functional; conditions: read-out: IC50_Mean
[8] = biological target: 26S proteasome non-ATPase regulatory subunit 14 (Homo sapiens, UniProt O00487); test: inhibition of proteasome subunit RPN11 – biochemical, fluorescence polarization, uHTS hits, confirmation (AID 602368); type: functional
[9] = biological target: Dual specificity protein phosphatase 3 (Homo sapiens, UniProt P51452); test: VHR phosphatase inhibition, dose response, selectivity assay for STEP inhibitor project, biochemical (AID 602374); type: functional; conditions: read-out: IC50_Mean
[10] = biological target: T4, Carboxy-terminal domain RNA polymerase II polypeptide A small phosphatase 1 (Homo sapiens, UniProt Q9GZU7); test: inhibitors of CTDSP1, concentration-response testing, biochemical assay, absorbance-based, actives from ultra-high-throughput screening (AID 540297); type: functional
T4 sequence (Q9GZU7 whole entry): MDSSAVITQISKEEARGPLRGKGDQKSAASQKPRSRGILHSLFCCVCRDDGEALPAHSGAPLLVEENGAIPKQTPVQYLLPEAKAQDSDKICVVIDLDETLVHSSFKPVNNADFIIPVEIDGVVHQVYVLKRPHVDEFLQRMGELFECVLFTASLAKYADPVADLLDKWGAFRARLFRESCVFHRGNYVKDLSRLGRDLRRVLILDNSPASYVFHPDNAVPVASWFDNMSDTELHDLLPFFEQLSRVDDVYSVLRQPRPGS

[11] = cytotoxicity in OVCAR8 ovarian cancer cells, dose response, PAX8 project, cell-based, plate reader, dry powder samples (AID 743197); type: functional; conditions: OVCAR-8
Paired box protein Pax-8 = Paired box protein Pax-8 (Homo sapiens, UniProt Q06710); test: inhibitors of PAX8-driven TPO luciferase reporter, dose response, RMG-I cells, cherry-pick (AID 687027); type: functional, cell-based;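 further: luciferase reporter driven by Pax8 target thyroperoxidase promoter measured by SteadyGlo luminescence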
[12] = HEK293T cytotoxicity, dose response, cytotoxicity control for miR-122 modulator project, cell-based, activator set, cherry-pick (AID 720690); type: functional;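 further: HEK293T human cells scored for general mammalian cytotoxicity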
[13] = HEK293T cytotoxicity, dose response, cytotoxicity control for miR-122 modulator project, cell-based, inhibitor set, cherry-pick, set 2 (AID 720697); type: functional
[14] = NIH:OVCAR-3 ovarian cancer cell cytotoxicity, dose response, PAX8 inhibitor project, plate reader, dry powder samples (AID 743044); type: functional, cell-based
[15] = biological target: Metabotropic glutamate receptor 3 (Rattus norvegicus, UniProt P31422); test: mGlu3 negative allosteric modulator potency, dose response, HEK/GIRK cells, thallium flux, rat (AID 651839); type: functional
[16] = biological target: SWI/SNF-related matrix-associated actin-dependent regulator of chromatin subfamily A member 2 (Homo sapiens, UniProt P51531); test: Luminescence-based cell-based high throughput dose response assay to identify activators of the function of SWI/SNF related, matrix associated, actin dependent regulator of chromatin, subfamily a, member 2 (SMARCA2, BRM).; type: functional
[17] = Counterscreen for activators of the function of SWI/SNF related, matrix associated, actin dependent regulator of chromatin, subfamily a, member 2 (SMARCA2, BRM): Luminescence-based cell-based high throughput dose response assay to identify non-selective compounds using the VP16 reporter assay.; type: functional

Metabotropic glutamate receptor 3, sequence (P31422 whole entry): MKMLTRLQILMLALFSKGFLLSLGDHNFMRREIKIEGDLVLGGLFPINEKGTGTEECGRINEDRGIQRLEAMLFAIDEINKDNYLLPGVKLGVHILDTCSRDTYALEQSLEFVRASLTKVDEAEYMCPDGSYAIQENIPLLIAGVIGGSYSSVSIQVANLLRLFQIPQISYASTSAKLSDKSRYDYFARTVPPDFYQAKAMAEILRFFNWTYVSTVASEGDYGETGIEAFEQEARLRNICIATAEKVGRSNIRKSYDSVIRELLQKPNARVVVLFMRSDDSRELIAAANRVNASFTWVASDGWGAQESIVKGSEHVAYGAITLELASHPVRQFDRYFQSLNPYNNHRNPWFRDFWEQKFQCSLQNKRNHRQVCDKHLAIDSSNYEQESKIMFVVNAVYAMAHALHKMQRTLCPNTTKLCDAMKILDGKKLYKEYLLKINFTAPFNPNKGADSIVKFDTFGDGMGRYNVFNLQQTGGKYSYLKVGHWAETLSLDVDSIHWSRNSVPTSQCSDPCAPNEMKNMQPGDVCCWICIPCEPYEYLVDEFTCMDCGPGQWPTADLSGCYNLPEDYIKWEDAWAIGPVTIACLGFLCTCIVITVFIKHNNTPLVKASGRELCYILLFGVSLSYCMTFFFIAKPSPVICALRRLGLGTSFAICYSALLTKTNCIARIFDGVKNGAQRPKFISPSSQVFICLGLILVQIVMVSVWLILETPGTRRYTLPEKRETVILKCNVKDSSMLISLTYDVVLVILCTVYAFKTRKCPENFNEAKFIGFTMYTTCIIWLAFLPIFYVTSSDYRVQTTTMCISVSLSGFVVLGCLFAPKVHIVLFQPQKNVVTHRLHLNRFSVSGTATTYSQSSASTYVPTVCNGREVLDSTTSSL
72 kDa type IV collagenase, sequence (P08253 whole entry): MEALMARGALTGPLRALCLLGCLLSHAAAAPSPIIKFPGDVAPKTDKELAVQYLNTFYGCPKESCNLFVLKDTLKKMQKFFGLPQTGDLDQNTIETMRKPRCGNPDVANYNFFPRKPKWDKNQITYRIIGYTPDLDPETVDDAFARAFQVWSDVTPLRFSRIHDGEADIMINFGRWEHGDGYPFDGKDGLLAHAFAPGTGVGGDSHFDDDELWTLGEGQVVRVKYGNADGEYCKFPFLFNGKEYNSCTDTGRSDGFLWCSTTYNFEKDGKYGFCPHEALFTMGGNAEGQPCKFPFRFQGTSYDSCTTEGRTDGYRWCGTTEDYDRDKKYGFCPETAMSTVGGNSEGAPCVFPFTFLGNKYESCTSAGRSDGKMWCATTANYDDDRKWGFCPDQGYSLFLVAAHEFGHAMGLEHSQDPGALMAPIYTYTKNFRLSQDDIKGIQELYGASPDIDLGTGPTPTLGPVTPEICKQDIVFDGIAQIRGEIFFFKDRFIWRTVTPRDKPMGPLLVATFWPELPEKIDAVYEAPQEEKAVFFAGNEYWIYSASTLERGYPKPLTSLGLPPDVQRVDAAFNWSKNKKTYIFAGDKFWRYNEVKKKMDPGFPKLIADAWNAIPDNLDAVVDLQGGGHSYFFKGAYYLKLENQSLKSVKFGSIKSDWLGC
Dual specificity protein phosphatase 3, sequence (P51452 whole entry, the tested form may be a part): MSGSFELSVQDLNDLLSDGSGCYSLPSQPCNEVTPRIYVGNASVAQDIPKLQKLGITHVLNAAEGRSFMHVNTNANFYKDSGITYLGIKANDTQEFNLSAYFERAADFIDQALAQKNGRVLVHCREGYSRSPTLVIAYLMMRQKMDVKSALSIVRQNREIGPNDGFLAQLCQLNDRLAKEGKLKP
Paired box protein Pax-8, sequence (Q06710 whole entry): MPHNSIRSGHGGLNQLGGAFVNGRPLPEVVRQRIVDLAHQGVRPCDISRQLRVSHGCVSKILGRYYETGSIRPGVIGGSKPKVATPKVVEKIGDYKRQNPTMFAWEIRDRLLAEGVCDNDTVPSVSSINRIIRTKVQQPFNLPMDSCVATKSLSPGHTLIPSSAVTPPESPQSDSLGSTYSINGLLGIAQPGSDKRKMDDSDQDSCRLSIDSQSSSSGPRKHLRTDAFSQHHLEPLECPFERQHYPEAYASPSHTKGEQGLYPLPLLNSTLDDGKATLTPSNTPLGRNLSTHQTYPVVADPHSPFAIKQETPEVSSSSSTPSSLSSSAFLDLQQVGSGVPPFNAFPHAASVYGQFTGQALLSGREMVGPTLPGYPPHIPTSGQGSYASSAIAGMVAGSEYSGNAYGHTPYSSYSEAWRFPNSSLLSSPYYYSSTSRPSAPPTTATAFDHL
Tyrosine-protein phosphatase non-receptor type 5, sequence (P54829 whole entry): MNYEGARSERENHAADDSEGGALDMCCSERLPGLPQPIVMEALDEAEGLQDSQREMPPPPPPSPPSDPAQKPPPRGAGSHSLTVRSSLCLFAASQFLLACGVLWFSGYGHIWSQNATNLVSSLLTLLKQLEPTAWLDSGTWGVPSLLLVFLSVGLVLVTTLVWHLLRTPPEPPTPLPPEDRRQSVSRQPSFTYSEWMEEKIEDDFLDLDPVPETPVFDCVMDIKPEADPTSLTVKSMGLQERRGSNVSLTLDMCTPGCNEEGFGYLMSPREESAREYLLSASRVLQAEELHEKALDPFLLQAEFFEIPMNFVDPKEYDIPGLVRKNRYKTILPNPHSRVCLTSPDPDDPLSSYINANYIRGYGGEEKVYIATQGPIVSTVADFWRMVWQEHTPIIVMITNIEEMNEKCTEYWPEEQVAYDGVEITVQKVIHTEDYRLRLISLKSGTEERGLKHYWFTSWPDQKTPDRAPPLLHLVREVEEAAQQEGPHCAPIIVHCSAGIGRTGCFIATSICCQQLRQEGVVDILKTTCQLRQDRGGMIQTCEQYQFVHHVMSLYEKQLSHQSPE
SWI/SNF-related matrix-associated actin-dependent regulator of chromatin subfamily A member 2, sequence (P51531 whole entry): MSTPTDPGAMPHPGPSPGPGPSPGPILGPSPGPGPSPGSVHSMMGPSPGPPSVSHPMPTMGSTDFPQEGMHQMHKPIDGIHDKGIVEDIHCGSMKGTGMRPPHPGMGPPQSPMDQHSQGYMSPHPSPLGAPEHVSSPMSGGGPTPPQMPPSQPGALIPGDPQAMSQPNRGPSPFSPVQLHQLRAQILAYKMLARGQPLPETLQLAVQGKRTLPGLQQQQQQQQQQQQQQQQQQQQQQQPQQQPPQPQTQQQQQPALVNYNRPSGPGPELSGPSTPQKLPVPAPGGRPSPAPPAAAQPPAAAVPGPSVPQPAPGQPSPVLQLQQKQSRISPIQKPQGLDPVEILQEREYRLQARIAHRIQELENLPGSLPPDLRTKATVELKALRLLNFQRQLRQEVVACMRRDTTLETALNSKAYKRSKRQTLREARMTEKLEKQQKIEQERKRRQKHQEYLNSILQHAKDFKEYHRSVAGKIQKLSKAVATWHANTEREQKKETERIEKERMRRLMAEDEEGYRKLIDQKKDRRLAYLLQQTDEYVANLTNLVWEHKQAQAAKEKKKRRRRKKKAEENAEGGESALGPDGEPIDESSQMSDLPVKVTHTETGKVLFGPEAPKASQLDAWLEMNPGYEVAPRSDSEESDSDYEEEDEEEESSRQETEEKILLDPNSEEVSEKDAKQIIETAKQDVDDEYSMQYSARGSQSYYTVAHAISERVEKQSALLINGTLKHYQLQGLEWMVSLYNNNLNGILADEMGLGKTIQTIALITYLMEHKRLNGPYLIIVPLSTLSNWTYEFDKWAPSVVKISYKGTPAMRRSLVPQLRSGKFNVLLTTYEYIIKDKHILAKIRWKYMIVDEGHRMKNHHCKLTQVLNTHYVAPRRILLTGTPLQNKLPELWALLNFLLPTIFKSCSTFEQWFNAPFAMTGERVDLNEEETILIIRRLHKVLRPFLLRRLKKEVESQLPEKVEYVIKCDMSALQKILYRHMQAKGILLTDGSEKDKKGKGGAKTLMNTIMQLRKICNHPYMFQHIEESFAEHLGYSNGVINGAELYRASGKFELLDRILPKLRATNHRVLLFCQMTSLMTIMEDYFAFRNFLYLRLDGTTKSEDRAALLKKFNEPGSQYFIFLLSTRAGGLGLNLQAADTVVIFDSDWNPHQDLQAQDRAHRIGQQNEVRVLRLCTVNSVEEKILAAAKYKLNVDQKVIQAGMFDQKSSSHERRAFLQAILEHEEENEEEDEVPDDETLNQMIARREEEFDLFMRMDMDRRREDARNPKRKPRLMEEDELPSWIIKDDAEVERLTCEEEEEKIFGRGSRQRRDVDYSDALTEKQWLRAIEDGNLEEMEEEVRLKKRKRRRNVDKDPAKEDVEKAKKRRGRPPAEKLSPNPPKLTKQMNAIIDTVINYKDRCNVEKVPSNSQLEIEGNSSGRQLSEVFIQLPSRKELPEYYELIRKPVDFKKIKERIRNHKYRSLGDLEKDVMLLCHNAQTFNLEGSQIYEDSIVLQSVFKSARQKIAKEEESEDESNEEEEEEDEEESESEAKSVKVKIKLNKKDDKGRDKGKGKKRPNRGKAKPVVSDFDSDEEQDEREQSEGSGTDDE
26S proteasome non-ATPase regulatory subunit 14, sequence (O00487 whole entry): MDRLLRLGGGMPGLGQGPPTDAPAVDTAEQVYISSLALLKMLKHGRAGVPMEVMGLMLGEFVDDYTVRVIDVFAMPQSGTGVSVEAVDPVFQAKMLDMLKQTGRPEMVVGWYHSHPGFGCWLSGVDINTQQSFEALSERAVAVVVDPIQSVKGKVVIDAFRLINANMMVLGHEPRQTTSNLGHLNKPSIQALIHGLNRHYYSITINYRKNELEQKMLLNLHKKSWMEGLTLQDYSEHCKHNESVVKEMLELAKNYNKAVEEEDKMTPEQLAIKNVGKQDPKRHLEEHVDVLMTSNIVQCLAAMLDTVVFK
Kallikrein-7, sequence (P49862 whole entry, the tested form may be a part): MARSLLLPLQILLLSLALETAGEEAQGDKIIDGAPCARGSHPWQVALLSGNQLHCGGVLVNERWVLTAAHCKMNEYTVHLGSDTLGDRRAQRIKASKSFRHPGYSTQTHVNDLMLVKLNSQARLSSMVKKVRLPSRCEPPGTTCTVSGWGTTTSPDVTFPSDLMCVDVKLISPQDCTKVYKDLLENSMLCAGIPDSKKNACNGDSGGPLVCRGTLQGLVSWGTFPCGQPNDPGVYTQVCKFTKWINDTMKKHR

CCC(=O)c1ccc(OCc2cn(CC(=O)c3ccc(O)cc3)nn2)cc1
IC50 [1]: 12.5 µM (active) | IC50 [2]: 7.63 µM (active)

Cc1cccc2c(C(=O)O)c3cccc(C)c3nc12
EC50 (Kallikrein-7): > 69.5 µM (inactive)

CCCc1nc2c(C)cc(Br)cn2c1Cc1ccc(C)cc1
EC50 [3]: > 67.5 µM (inactive) | EC50 (cells): > 67.5 µM (inactive)

O=C(N/N=C/c1cccnc1)c1ccc(NC(=O)c2cccc(Cl)c2)cc1
IC50 [4]: > 100 µM (inactive) | IC50 (Prothrombin): > 100 µM (inactive) | IC50 [5]: 16.5 µM (active) | IC50 [6]: 30.2 µM (inactive) | IC50 [7]: 5.05 µM (active) | IC50 [8]: 22.7 µM (active) | IC50 [9]: 2.84 µM (active) | IC50 [10]: 7.91 µM (active)

C[C@@H]1CN([C@H](C)CO)C(=O)c2cc(NC(=O)Cc3ccccc3)ccc2O[C@@H](C)CCCCO[C@H]1CN(C)Cc1ccc(C(F)(F)F)cc1
AC50 [11]: 63.1 µM (active) | AC50 (Paired box protein Pax-8): 3.98 µM (active) | AC50 [12]: 13.8 µM (active) | AC50 [13]: 0.795 µM (active) | AC50 [14]: 3.83 µM (active)

COc1ncc(-c2ccc3cc(C(=O)N4CCCC(CO)C4)ccc3c2)cn1 (centres undefined)
pIC50 [15]: 5.66

O=C(c1ccc2cc(-c3ccccc3OCc3ccccc3)ccc2c1)N1CCCC(CO)C1 (centres undefined)
IC50 [15]: 9.35 µM (active)

CC(C)N(C[C@@H]1N[C@@H](CO)[C@@H]1c1ccccc1)S(=O)(=O)c1ccccc1
AC50 [12]: 32.2 µM (active) | AC50 [13]: 0.473 µM (active)

COc1ccc(OCc2ccc(/C=N\NC(=O)c3sccc3C)o2)cc1
EC50 [16]: > 91.2 µM (inactive) | EC50 [17]: > 91.2 µM (inactive)
